Data reported in patent US5578620A, “Thiazolidine and oxazolidine derivatives, their preparation and their medical use” (Sankyo Company, Limited, priority 1994, dated 1996).

Target: T1, Bovine lens aldose reductase (Bos taurus, UniProt P16116)
T1 construct: Bovine lens aldose reductase was separated and partially purified; from tissue; host or cells: bovine lens
Assay: Inhibition of Aldose reductase
Format: biochemical
Settings: for inhibition at 5 µg/mL: read-out: Inhibition at 5 μg/ml
Protocol: Bovine lens aldose reductase was separated and partially purified by the method of S. Hyman and J. H. Kinoshita [J. Biol. Chem., 240, 877 (1965)] and K. Inagaki, I. Miwa and J. Okuda [Arch. Biochem. Biophys., 316, 337 (1982)], and its activity was determined photometrically by the method of Varma et al. [Biochem. Pharmac., 25, 2505 (1976)]. […]

SMILES | IC50 [nM] | inhibition at 5 µg/mL [%]
O=C1NC(=O)C(Cc2ccc(OCCCN3CC(COc4ccccc4)OC3=O)cc2)S1 (stereo not shown) [Example 53, 5-{4-[3-(5-Phenoxymethyl-2-oxooxazolidin-3-yl)propoxy]benzyl}thiazolidine-2,4-dione] | 2410 | 77.6
CC(COc1ccc(CC2SC(=O)NC2=O)cc1)NCC(O)COc1cccc(Cl)c1 (stereo not shown) [Example 2, 5-{4-[2-(3-3'-Chlorophenoxy-2-hydroxypropylamino)propoxy]benzyl}thiazolidine-2,4-dione] | 6020 | 63.2
CC(COc1ccc(CC2SC(=O)NC2=O)cc1)N1CC(COCCCCc2ccccc2)OC1=O (stereo not shown) [25 (polar), 5-{4-[2-(5-4'-Phenylbutoxymethyl-2-oxooxazolidin-3-yl)propoxy]benzyl}thiazolidine-2,4-dione] | 429 | 82
CC(COc1ccc(CC2SC(=O)NC2=O)cc1)N1CC(COCCCc2ccccc2)OC1=O (single isomer, unassigned) [24 (less polar), 5-{4-[2-(5-3'-Phenylpropoxymethyl-2-oxooxazolidin-3-yl)propoxy]benzyl}thiazolidine-2,4-dione] | 1970 | 71.7
CC(COc1ccc(CC2SC(=O)NC2=O)cc1)N1CC(COc2ccccc2)OC1=O (stereo not shown) [Example 4, 5-{4-[2-(5-Phenoxymethyl-2-oxooxazolidin-3-yl)propoxy]benzyl}thiazolidine-2,4-dione] | 2410 | 84.5
CC(COc1ccc(CC2SC(=O)NC2=O)cc1)NCC(O)COc1ccc(-c2ccccc2)cc1 (stereo not shown) [Example 34, 5-{4-[2-(3-4'-Phenylphenoxy-2-hydroxypropylamino)propoxy]benzyl}thiazolidine-2,4-dione] | 3750 | 62
CC(COc1ccc(CC2SC(=O)NC2=O)cc1)N1CC(COCCc2ccccc2)OC1=O (stereo not shown) [Example 23, 5-{4-[2-(5-2'-Phenylethoxymethyl-2-oxooxazolidin-3-yl)propoxy]benzyl}thiazolidine-2,4-dione] | 3300 | 70.7
CCC(COc1ccc(CC2SC(=O)NC2=O)cc1)N1CC(COc2cccc(Cl)c2)OC1=O (single isomer, unassigned) [47 (less polar), 5-{4-[2-(5-3'-Chlorophenoxymethyl-2-oxooxazolidin-3-yl)butoxy]benzyl}thiazolidine-2,4-dione] | 3170 | 57.6
CC(COc1ccc(CC2SC(=O)NC2=O)cc1)NCC(O)COc1cccc(N(C)C)c1 (stereo not shown) [Example 32, 5-{4-[2-(3-3'-Dimethylaminophenoxy-2-hydroxypropylamino)propoxy]benzyl}thiazolidine-2,4-dione] | 6120 | 54.6
CC(COc1ccc(CC2SC(=O)NC2=O)cc1)N1CC(COCc2cccc(Cl)c2)OC1=O (stereo not shown) [Example 42, 5-{4-[2-(5-3'-Chlorobenzyloxymethyl-2-oxooxazolidin-3-yl)propoxy]benzyl}thiazolidine-2,4-dione] | 1880 | 74
CCCC(COc1ccc(CC2SC(=O)NC2=O)cc1)N1CC(COc2cccc(Cl)c2)OC1=O (stereo not shown) [Example 50, 5-{4-[2-(5-3'-Chlorophenoxymethyl-2-oxooxazolidin-3-yl)pentyloxy]benzyl}thiazolidine-2,4-dione] | 617 | –
O=C1NC(=O)C(Cc2ccc(OCCCCN3CC(COc4cccc(Cl)c4)OC3=O)cc2)S1 (stereo not shown) [Example 54, 5-{4-[4-(5-3'-Chlorophenoxymethyl-2-oxooxazolidin-3-yl)butoxy]benzyl}thiazolidine-2,4-dione] | 1980 | 69.1
CC(COc1ccc(CC2SC(=O)NC2=O)cc1)N1CC(COc2cccc(N(C)C)c2)OC1=O (stereo not shown) [Example 33, 5-{4-[2-(5-3'-Dimethylaminophenoxymethyl-2-oxooxazolidin-3-yl)propoxy]benzyl}thiazolidine-2,4-dione] | 641 | 85.5
CC(COc1ccc(CC2SC(=O)NC2=O)cc1)NCC(O)COCCCCCc1ccccc1 (stereo not shown) [Example 16, 5-{4-[2-(3-5'-Phenylpentyloxy-2-hydroxypropylamino)propoxy]benzyl}thiazolidine-2,4-dione] | 6590 | 59.2
CC(CSc1ccc(CC2SC(=O)NC2=O)cc1)N1CC(COc2cccc(Cl)c2)OC1=O (stereo not shown) [10 (polar), 5-{4-[2-(5-3'-Chlorophenoxymethyl-2-oxooxazolidin-3-yl)propylthio]benzyl}thiazolidine-2,4-dione] | 789 | 88.3
CC(COc1ccc(CC2SC(=O)NC2=O)cc1)N1CC(Cc2ccccc2)OC1=O (stereo not shown) [Example 8, 5-{4-[2-(5-Benzyl-2-oxooxazolidin-3-yl)propoxy]benzyl}thiazolidine-2,4-dione] | 4990 | 67.2

SMILES | IC50 [nM] | inhibition at 5 µg/mL [%]
CC(COc1ccc(CC2SC(=O)NC2=O)cc1)NCC(O)COCCCCCCCCc1ccccc1 (stereo not shown) [Example 21, 5-{4-[2-(3-8'-Phenyloctyloxy-2-hydroxypropylamino)propoxy]benzyl}thiazolidine-2,4-dione] | 4610 | 58.7
CC(COc1ccc(CC2SC(=O)NC2=O)cc1)N1CC(COCCCCCc2ccccc2)OC1=O (stereo not shown) [Example 26, 5-{4-[2-(5-5'-Phenylpentyloxymethyl-2-oxooxazolidin-3-yl)propoxy]benzyl}thiazolidine-2,4-dione] | 1040 | 74.2
CC(COc1ccc(CC2SC(=O)NC2=O)cc1)N1CC(CSc2ccccc2)OC1=O (stereo not shown) [Example 38, 5-{4-[2-(5-Phenylthiomethyl-2-oxooxazolidin-3-yl)propoxy]benzyl}thiazolidine-2,4-dione] | 1500 | 80.1
COc1ccc(OCC2CN(C(C)COc3ccc(CC4SC(=O)NC4=O)cc3)C(=O)O2)cc1 (stereo not shown) [31 (polar), 5-{4-[2-(5-4'-Methoxyphenoxymethyl-2-oxooxazolidin-3-yl)propoxy]benzyl}thiazolidine-2,4-dione] | 863 | 88.1
CC(COc1ccc(CC2SC(=O)NC2=O)cc1)N1CCOC(COc2cccc(Cl)c2)C1 (stereo not shown) [Example 55, 5-{4-[2-(2-3'-Chlorophenoxymethylmorpholino)propoxy]benzyl}thiazolidine-2,4-dione] | 2850 | 62.7
CC(COc1ccc(CC2SC(=O)NC2=O)cc1)N1CC(COCCCCCCc2ccccc2)OC1=O (stereo not shown) [Example 27, 5-{4-[2-(5-6'-Phenylhexyloxymethyl-2-oxooxazolidin-3-yl)propoxy]benzyl}thiazolidine-2,4-dione] | 3510 | 54.9
CC(COc1ccc(CC2SC(=O)NC2=O)cc1)N1CC(CN(C)c2ccccc2)OC1=O (stereo not shown) [Example 40, 5-[4-{2-[5-(N-Methyl-N-phenylaminomethyl)-2-oxooxazolidin-3-yl]propoxy}benzyl]thiazolidine-2,4-dione] | 1850 | 80.9
CC(COc1ccc(CC2SC(=O)NC2=O)cc1)N1CC(COCCCCc2ccccc2)OC1=O (single isomer, unassigned) [25 (less polar), 5-{4-[2-(5-4'-Phenylbutoxymethyl-2-oxooxazolidin-3-yl)propoxy]benzyl}thiazolidine-2,4-dione] | 3900 | 57.1
CC(COc1ccc(CC2SC(=O)NC2=O)cc1)N1CC(COCc2cccc(Cl)c2)OC1=S (stereo not shown) [Example 43, 5-{4-[2-(5-3'-Chlorobenzyloxymethyl-2-thioxooxazolidin-3-yl)propoxy]benzyl}thiazolidine-2,4-dione] | 1170 | 65.9
CC(CSc1ccc(CC2SC(=O)NC2=O)cc1)N1CC(COc2cccc(Cl)c2)OC1=O (single isomer, unassigned) [10 (less polar), 5-{4-[2-(5-3'-Chlorophenoxymethyl-2-oxooxazolidin-3-yl)propylthio]benzyl}thiazolidine-2,4-dione] | 3940 | 60.1
CC(C)(COc1ccc(CC2SC(=O)NC2=O)cc1)N1CC(COc2cccc(Cl)c2)OC1=O (stereo not shown) [Example 52, 5-{4-[2-(5,3'-Chlorophenoxymethyl-2-oxooxazolidin-3-yl)-2-methylpropoxy]benzyl}thiazolidine-2,4-dione] | 1860 | 72.8
CC(COc1ccc(CC2SC(=O)NC2=O)cc1)N1CC(COc2cccc(F)c2)OC1=O (stereo not shown) [Example 30, 5-{4-[2-(5-3'-Fluorophenoxymethyl-2-oxooxazolidin-3-yl)propoxy]benzyl}thiazolidine-2,4-dione] | 3790 | 68.6
CCC(COc1ccc(CC2SC(=O)NC2=O)cc1)NCC(O)COc1cccc(Cl)c1 (stereo not shown) [Example 46, 5-{4-[2-(3-3'-Chlorophenoxy-2-hydroxypropylamino)butoxy]benzyl}thiazolidine-2,4-dione] | 6050 | 61
CC(COc1ccc(CC2SC(=O)NC2=O)cc1)N1CC(COc2ccccc2)OC1=S (stereo not shown) [Example 49, 5-{4-[2-(5-Phenoxymethyl-2-thioxooxaolidin-3-yl)propoxy]benzyl}thiazolidine-2,4-dione] | 1040 | 77.8
CC(COc1ccc(CC2SC(=O)NC2=O)cc1)NCC(O)CSc1ccccc1 (stereo not shown) [Example 37, 5-{4-[2-(3-Phenylthio-2-hydroxypropylamino)propoxy]benzyl}thiazolidine-2,4-dione] | 8730 | 55.2
